Among the data in a melting point compilation (Tetko et al.; mined from patent text by program, amines drawn as free bases though some values may be those of a salt) are melting point values, retold here.

As to `CC1(C)C(=O)NC(=O)c2c1ccc(NC(=O)c1ccccc1)c2[N+](=O)[O-]`, the melting point was over 270 °C.

In turn, `CCc1nc2c(C)cc(C)nc2n1Cc1ccc2c(c1)CCc1ccccc1N2CC(=O)O` yielded a melting point of 114 to 115 °C.

For `CCCC(=O)c1cnc2c(OC)cccc2c1Nc1ccc(O)c(F)c1`, the melting point is 266 to 268 °C.

With `COCC(C1CC1)n1cc(Cl)nc(Nc2cc(C)c(OC(F)F)nc2C)c1=O` (stereo not drawn), the melting point was 103 to 104 °C.

Consider `O=C(NCCO)/C(=C/c1ccc(C(F)(F)F)cc1F)NC(=O)c1ccc(OCCC(F)(F)F)cc1`, for which the melting point fell in the range of 203 to 205 °C.

For `CSCCOc1cc(N)c(Cl)cc1C(=O)O`, the melting point was 138 to 140 °C.

As for `C#CCn1c(=O)sc2cc(F)c(-n3c(OC)nc(C(F)(F)F)cc3=O)cc21`, the melting point was in the range of 191 to 192 °C.

Take `CN1CCCC(O)(c2nccnc2Cl)C1` (stereo not drawn): the melting point is 111 to 112 °C.

For the compound `CC1CC(C)CN(S(=O)(=O)c2ccc(Cl)c(C(=O)Cl)c2)C1` (stereo not drawn), the melting point was in the range of 164 to 166 °C.

As to `Cc1cc(C)n(-c2nc(Nc3ccc4ccccc4c3)c3ccccc3n2)n1`, the melting point is 213 to 216 °C.

In turn, `N#Cc1ccc(N(Cc2ccccc2)n2cnnc2)cc1-c1ccc(O)cc1` displayed a melting point of 229 to 230 °C.

For `CN(C)CCNC(=S)Nc1ccc(-c2nnc(CSCCOc3ccccc3)o2)cc1`, the melting point lay in the range of 155 to 158 °C.

In the case of `CCCc1nc(NC)sc1-c1ccncc1`, the melting point lay within 150 to 151 °C.

Compound `O=C(Nc1c[nH]nc1C(=O)NCCC(F)(F)F)c1ccccn1` gave a melting point of 241 to 243 °C.

On to `O=C(O)[C@H](Cc1ccc(C(F)(F)F)cc1)[C@@H](O)c1ccccc1` (racemic), for which the melting point was in the range of 138 to 139 °C.

`CC(O)c1ccc(Cl)c(Cl)c1Cl` (stereo not drawn) returned a melting point of 87 to 89 °C.

`CCOc1ccc(CC(=O)O)cc1OCCCc1cn(-c2ccc(C(F)(F)F)cn2)nc1C1CCCCC1` registered a melting point of 134 to 135 °C.

`O=C1Nc2ccc(Oc3cc(F)c(C(F)(F)F)c(Cl)c3)cc2C12CC2` showed a melting point of 168 to 170 °C.

The compound `N#CCCn1nc(-c2ccc(OCc3ccccc3)cc2)sc1=O` yielded a melting point of 135 °C.

Turning to `Cc1ccc(-c2ccnc3c(C(N)=O)ncn23)cc1`, the melting point is 263 to 266 °C.

`CN1CC[C@@H]2CC(=O)c3c(F)cc(F)cc3[C@@H]2C1` (relative stereo) yielded a melting point of over 220 °C.

For `N#CC(CCSC(F)(F)F)S(=O)CCC(F)(F)C(F)(F)F` (stereo not drawn), the melting point was in the range of 41 to 43 °C.

`CC(=O)NCCC1CCc2ccc3nc(CO)oc3c21` (stereo not drawn) returned a melting point of 132 to 134 °C.

Take `COc1ccc(COc2nc(C3CC3)c3cc(-c4cccc(Cl)c4)ccc3n2)cc1`: the melting point lay in the range of 158 to 159 °C.

In the case of `CCOC(=O)NC(=CC(=O)[C@H](Cc1ccccc1)N(Cc1ccccc1)Cc1ccccc1)Cc1ccccc1`, the melting point lay in the range of 91 to 93 °C.

For the compound `O=Cc1cc([N+](=O)[O-])ccc1OC(F)(F)F`, the melting point was in the range of 32 to 34 °C.

For `COC(=O)C(C)Oc1cc(C)ccc1COc1ccc(-n2c(=O)cc(C(F)(F)F)n(C)c2=O)cc1` (stereo not drawn), the melting point is 52 to 54 °C.

The compound `COC(=O)c1cccc(-c2nc(C(=O)c3ccc(N)c(C(=O)OC)c3)n3ccccc23)c1` registered a melting point of 203 °C.

For `CC(C)Cn1c(=O)n(C)c(=O)c2c(SCCC(C)O)c(Cc3cccc4ccccc34)sc21` (stereo not drawn), the melting point lay in the range of 162 to 163 °C.

Regarding `Cc1nc2ccccn2c(=O)c1CCN1CCC2C(C1)c1ccccc1N2Cc1ccccc1` (stereo not drawn), the melting point came out at 145 °C.

As for `CC(=O)c1ccc2c(c1)-c1ccccc1-2`, the melting point lay in the range of 134 to 135 °C.

As to `COc1ccc(-c2nccs2)cc1OC1CCCC1`, the melting point lay within 72 to 75 °C.

In the case of `C#CCON=Cc1cc(Cl)ccc1O`, the melting point was 71 to 73 °C.

For the compound `CNC(=O)OC1c2ccccc2C(=O)N1c1ccc2ccc(Cl)nc2n1` (stereo not drawn), the melting point came to 260 °C.

`CCc1nc(C)c(/C=C(\NC(=O)c2ccc(C(=O)NCc3cccc(O)c3)cc2Cl)C(=O)OC)s1`: the melting point is over 200 °C.

Compound `Cc1cc(CN(Cc2cc(C(F)(F)F)cc(C(F)(F)F)c2)c2nnn(C)n2)c(N(CC2CC2)CC2CC2)nc1C` returned a melting point of 103 °C.

In the case of `Cc1nc2nccc(C(C)Oc3ccc(Cl)cc3)n2n1` (stereo not drawn), the melting point was determined as 138 °C.

As to `O=c1c2c(nc3ccc(Cl)cn13)C(=Cc1ccccc1Cl)CC2`, the melting point is 249 to 250 °C.

`CCCCCCCCCCCCCCCc1cccc(OCC)c1C1NC(=O)NC(C)=C1C(=O)OCC` (stereo not drawn) showed a melting point of 99 to 100 °C.

`CC(C)(C)CCN1C(=O)C(NC(=O)Oc2ccccc2)C(=O)N(c2ccccc2F)c2ccccc21` (stereo not drawn) gave a melting point of 199 to 200 °C.

`CCCc1nsc(Oc2cccc(NC(=O)OC(C)C)c2)n1` displayed a melting point of 64 °C.

As for `Nc1ccc2c(c1)OC1(CC1)C2=O`, the melting point lay within 188 to 189 °C.

Take `Cc1nccc2[nH]c(=O)c(C#N)cc12`: the melting point was in the range of 275 to 277 °C.

Turning to `CC(C)NS(=O)(=O)c1cccc(NC(=O)c2cnn3c(C(F)(F)F)cc(-c4ccc(C(F)(F)F)cc4)nc23)c1`, the melting point stood at 222 °C.

For the compound `NS(=O)(=O)c1ccc(-n2nc(NC(=O)Nc3cccc(C(F)(F)F)c3)cc2-c2ccccc2)cc1`, the melting point is 195 to 197 °C.

Consider `Cc1cc(CCCCCOc2ccc(C#N)cc2)on1`, for which the melting point came to 57 °C.

Compound `COC[C@H]1CCCN1S(=O)(=O)c1ccc2c(c1)C(=O)C(=O)N2` returned a melting point of 161 to 164 °C.

For `CCn1cc(C(=O)O)c(=O)c2cc(F)c(N3CC(C)(NC(=O)C(F)(F)F)C3)c(F)c21`, the melting point was in the range of 196 to 210 °C.

Turning to `CC1(C#N)CCCc2nc(-c3ccccc3)ccc21` (stereo not drawn), the melting point was 114 to 116 °C.

The compound `N#Cc1c2c(n(Cc3ccccc3)c1N)CCCC2` returned a melting point of 128 to 130 °C.

Turning to `C=CCn1c(-c2ccccc2[N+](=O)[O-])nc2ccccc21`, the melting point is 81.5 to 83 °C.

As for `O=C(NCc1ccc(Cl)cc1)n1cc(Br)cnc1=O`, the melting point was 158 to 160 °C.

As for `OCCc1nccn1CCCc1ccc(OCc2coc(/C=C/c3ccc(F)cc3F)n2)cc1`, the melting point fell in the range of 94 to 96 °C.

With `C=CCOc1cc(-n2c(=O)cc(C(F)(F)F)n(C)c2=O)ccc1C#N`, the melting point lay in the range of 158 to 160 °C.

On to `CCCCCCC(C(=O)N1CC(O)CC1C(=O)O)n1cnc2cc(-c3ccccc3-c3nn[nH]n3)ccc21` (stereo not drawn), for which the melting point was 155 to 160 °C.

Take `COC(=O)c1cnn(C)c1S(=O)(=O)NC(=O)Nc1nc(C)cc(OC)n1`: the melting point lay in the range of 183 to 184 °C.

The compound `COc1ccc2ccc(I)cc2c1` gave a melting point of 116 °C.

The compound `NC(=O)c1ccc2ccn(C3CCN(CCc4ccc(F)cc4)CC3)c2c1` showed a melting point of 238 to 240 °C.

In turn, `COC(=O)C1=C(C)NC(C)=C(C(=O)OC)C1C1CCC(C(=O)OC)C1` (stereo not drawn) returned a melting point of 144 to 145 °C.

Compound `Cc1nc(N2CCN(Cc3ccc(F)cc3)C2=O)sc1-c1nn[nH]n1` gave a melting point of 145 to 149 °C.

The compound `COc1ccc(-c2cnc(N)c(SC)n2)cc1` had a melting point of 139 to 140 °C.

Compound `CC(C(=O)c1ccccc1)=C1CCCN1` displayed a melting point of 91 to 92 °C.

Compound `O=c1cc(C(F)(F)F)n(-c2c([N+](=O)[O-])cc([N+](=O)[O-])cc2C(F)(F)F)c(=O)[nH]1` displayed a melting point of 219 to 220 °C.

The compound `CCCn1c(=O)c2c(Cl)cc(Cl)cc2n(Cc2ccccc2)c1=O` came in with a melting point of 111 to 115 °C.

Take `CC(C)(CCCC(C(O)C(C)(C)C)n1cncn1)c1ccccc1` (stereo not drawn): the melting point fell in the range of 98 to 99 °C.

`CCN(CC)Cc1nc(-c2ncn3c2[C@@H]2CCN2C(=O)c2ccccc2-3)no1` had a melting point of 209 to 211 °C.

`CC(C(=O)O)c1ccc(C=C2CCCCC2O)cc1` (stereo not drawn) displayed a melting point of 135 to 136 °C.

Consider `CCOC(=O)/C=C/c1ccc(OCc2nc(-c3ccccc3)oc2C)nc1`, for which the melting point was in the range of 109 to 110 °C.

In turn, `O=C(c1ccccc1)C(O)C1OC(n2cc(F)c(=O)[nH]c2=O)C(O)(C(=O)c2ccccc2)C1(O)C(=O)c1ccccc1` (stereo not drawn) yielded a melting point of 210 to 214 °C.

With `O=C(CCc1ccccc1)C(Cc1ccccc1)(Cc1ccccc1)C(=O)CCc1ccccc1`, the melting point was in the range of 84 to 86 °C.

On to `O=C(O)C1=Cc2c(ccc3oc4ccccc4c23)OC1C(F)(F)F` (stereo not drawn), for which the melting point lay in the range of 254 to 255 °C.

Compound `Cc1ccc(-c2[nH]c(-c3ccc4ccccc4c3)nc2C(=O)Nc2nccs2)cc1` displayed a melting point of over 250 °C.

`COc1cc2ncc(C#N)c(Nc3ccc(C(N)=O)cc3)c2cc1OC` showed a melting point of over 250 °C.

Compound `CCN(C(=O)C(C)Oc1ccc(Oc2ncc(Cl)cc2Cl)cc1)C(CS)C(=O)O` (stereo not drawn) yielded a melting point of 89 to 91 °C.

On to `Nc1ncnc2c1c(-c1ccc(Oc3ccccc3)cc1)cn2CCO`, for which the melting point lay within 144 to 145 °C.

Compound `Cc1cc2c(cc1OCC(=O)O)C(C)(C)CC1(CC(C)(C)c3cc(OCC(=O)O)c(C)cc3O1)O2` came in with a melting point of over 260 °C.

In the case of `COc1ccc2c3c(c(=O)oc2c1)CN(Cc1ccc(C(F)(F)F)cc1)CC3`, the melting point fell in the range of 203 to 206 °C.

With `COc1c(C)c2c(c(O)c1CC1=C(C)CC(C(=O)O)C1)C(=O)OC2` (stereo not drawn), the melting point fell in the range of 208 to 211 °C.

With `Cn1cnc2c(=S)[nH]ccc21`, the melting point is over 300 °C.

In turn, `COC(=O)c1ccccc1C1NC(=S)C(C)(C(C)C)N1` (stereo not drawn) had a melting point of 115 to 121 °C.

Take `CCCc1nccn1NCc1cc(C(C)(C)C)c(O)c(C(C)(C)C)c1`: the melting point was 122 to 123 °C.

`Cc1cccc2nc3n(c(=O)c12)-c1ccccc1C3=O` showed a melting point of 304 to 307 °C.

In turn, `O=C(O)CSc1nc(Cl)cc(Cl)n1` yielded a melting point of 120 to 122 °C.

Compound `O=C1CCCC2(c3ccccc3)NCCCN12` (stereo not drawn) came in with a melting point of 120 °C.

Take `COc1ccc(-n2nnc3ccc(-c4nnc(CCc5cccc(F)c5)o4)cc32)cc1`: the melting point lay in the range of 125 to 126 °C.

For the compound `CC(C)C[N+]([O-])=Cc1ccccc1`, the melting point fell in the range of 73 to 75 °C.

For `Cc1cc(C#N)c2c(c1C)C(=O)CC2`, the melting point is 160 to 163 °C.

The compound `COc1ccc(C)cc1NC(=O)Nc1ccc(C2CCN(C(=O)Nc3cc(OCCO)ccc3Cl)CC2)cc1` registered a melting point of 202 to 205 °C.
